Literature values, collected in patent US20240082270A1 (priority 2021, published 2024).

System: live SARS-CoV-2

SMILES | effectiveness against variants
C=C(C)[C@@H]1CCC(C)=C[C@H]1c1c(O)cc(CCCCC)c(C(=O)O)c1O [CBDA] | equally effective
CCCCCc1cc(O)c(C/C=C(\C)CCC=C(C)C)c(O)c1C(=O)O [CBGA, cannabigerolic acid] | equally effective
